Test results published in PubChem BioAssay AID1963983 (Molecular Pharmacology Branch, DTP, NCI, 2024).

Tested on: 186277-243-T-J2-PDC multi-cell spheroid viability
Assay: Anticancer human tumor 186277-243-T-J2-PDC patient-derived colon adenocarcinoma cell line growth inhibition [PI3K]
Details: for IC50: curve of first compound; for viability, T/C: stronger effect = lower value
Summary of the method: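 Spheroid viability read-out. Co-cultures contained the tumor line plus HUVEC and human MSCs. Each agent was paired with a PI3K inhibitor (inavolisib, alpelisib, duvelisib, copanlisib) across half-log dilutions starting at clinical Cmax, or at 10 microM when Cmax was unknown.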

[1] = second compound 0.0316 µM, first compound 0.0316 µM
[2] = second compound 0.0316 µM, first compound 0.1 µM
[3] = second compound 0.0316 µM, first compound 0.316 µM
[4] = second compound 0.0316 µM, first compound 1 µM
[5] = second compound 0.0316 µM, first compound 3.16 µM
[6] = second compound 0.0316 µM, first compound 10 µM
[7] = second compound 0.1 µM, first compound 0.0316 µM
[8] = second compound 0.1 µM, first compound 0.1 µM
[9] = second compound 0.1 µM, first compound 0.316 µM
[10] = second compound 0.1 µM, first compound 1 µM
[11] = second compound 0.1 µM, first compound 3.16 µM
[12] = second compound 0.1 µM, first compound 10 µM
[13] = second compound 0.316 µM, first compound 0.0316 µM
[14] = second compound 0.316 µM, first compound 0.1 µM
[15] = second compound 0.316 µM, first compound 0.316 µM
[16] = second compound 0.316 µM, first compound 1 µM
[17] = second compound 0.316 µM, first compound 3.16 µM
[18] = second compound 0.316 µM, first compound 10 µM
[19] = second compound 1 µM, first compound 0.0316 µM
[20] = second compound 1 µM, first compound 0.1 µM
[21] = second compound 1 µM, first compound 0.316 µM
[22] = second compound 1 µM, first compound 1 µM
[23] = second compound 1 µM, first compound 3.16 µM
[24] = second compound 1 µM, first compound 10 µM
[25] = second compound 3.16 µM, first compound 0.0316 µM
[26] = second compound 3.16 µM, first compound 0.1 µM
[27] = second compound 3.16 µM, first compound 0.316 µM
[28] = second compound 3.16 µM, first compound 1 µM
[29] = second compound 3.16 µM, first compound 3.16 µM
[30] = second compound 3.16 µM, first compound 10 µM
[31] = second compound 10 µM, first compound 0.0316 µM
[32] = second compound 10 µM, first compound 0.1 µM
[33] = second compound 10 µM, first compound 0.316 µM
[34] = second compound 10 µM, first compound 1 µM
[35] = second compound 10 µM, first compound 3.16 µM
[36] = second compound 10 µM, first compound 10 µM
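Note: spheroids exposed to compounds for seven days before viability reading.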
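Throughout, for viability, T/C: 100% = DMSO vehicle control viability.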

CC(Cn1ccc(-c2ccc(C#N)c(Cl)c2)n1)NC(=O)c1cc(C(C)O)[nH]n1 (stereo unspecified) + CC(Nc1ccc2c(c1)OCCn1cc(N3C(=O)OCC3C(F)F)nc1-2)C(N)=O
IC50 (second compound 0.00316 µM): > 10000 nM
IC50 (second compound 0.01 µM): > 10000 nM
IC50 (second compound 0.0316 µM): > 10000 nM
IC50 (second compound 0.1 µM): > 10000 nM
IC50 (second compound 0.316 µM): > 10000 nM
IC50 (second compound 1 µM): < 31.6 nM
viability, T/C (second compound 0.00316 µM, first compound 0.0316 µM): 97.8%
viability, T/C (second compound 0.00316 µM, first compound 0.1 µM): 97%
viability, T/C (second compound 0.00316 µM, first compound 0.316 µM): 91.3%
viability, T/C (second compound 0.00316 µM, first compound 1 µM): 84.9%
viability, T/C (second compound 0.00316 µM, first compound 3.16 µM): 93.6%
viability, T/C (second compound 0.00316 µM, first compound 10 µM): 102%
viability, T/C (second compound 0.01 µM, first compound 0.0316 µM): 101%
viability, T/C (second compound 0.01 µM, first compound 0.1 µM): 93.2%
viability, T/C (second compound 0.01 µM, first compound 0.316 µM): 95.6%
viability, T/C (second compound 0.01 µM, first compound 1 µM): 91.6%
viability, T/C (second compound 0.01 µM, first compound 3.16 µM): 108%
viability, T/C (second compound 0.01 µM, first compound 10 µM): 91.7%
viability, T/C [1]: 106%
viability, T/C [2]: 95.3%
viability, T/C [3]: 102%
viability, T/C [4]: 111%
viability, T/C [5]: 111%
viability, T/C [6]: 95.5%
viability, T/C [7]: 104%
viability, T/C [8]: 107%
viability, T/C [9]: 101%
viability, T/C [10]: 90.1%
viability, T/C [11]: 88.8%
viability, T/C [12]: 74.4%
viability, T/C [13]: 81.3%
viability, T/C [14]: 82%
viability, T/C [15]: 74.6%
viability, T/C [16]: 73%
viability, T/C [17]: 67.7%
viability, T/C [18]: 57.7%
viability, T/C [19]: 47.7%
viability, T/C [20]: 45.9%
viability, T/C [21]: 44.9%
viability, T/C [22]: 45.6%
viability, T/C [23]: 44%
viability, T/C [24]: 35.4%

Cn1ncc(Cl)c1-c1cc(C(=O)NC(CN)Cc2cccc(F)c2)sc1Cl (stereo unspecified) + CC(Nc1ncnc2nc[nH]c12)c1cc2cccc(Cl)c2c(=O)n1-c1ccccc1
IC50 (second compound 0.0316 µM): 1500 nM
IC50 (second compound 0.1 µM): 1330 nM
IC50 (second compound 0.316 µM): 1080 nM
IC50 (second compound 1 µM): 516 nM
IC50 (second compound 3.16 µM): 304 nM
IC50 (second compound 10 µM): 182 nM
viability, T/C [1]: 82.5%
viability, T/C [2]: 83.6%
viability, T/C [3]: 55.5%
viability, T/C [4]: 56.8%
viability, T/C [5]: 46.1%
viability, T/C [6]: 15.4%
viability, T/C [7]: 84.1%
viability, T/C [8]: 90.4%
viability, T/C [9]: 54.2%
viability, T/C [10]: 56.1%
viability, T/C [11]: 44.3%
viability, T/C [12]: 17.5%
viability, T/C [13]: 99.9%
viability, T/C [14]: 86.9%
viability, T/C [15]: 60.9%
viability, T/C [16]: 48.8%
viability, T/C [17]: 44.6%
viability, T/C [18]: 16.1%
viability, T/C [19]: 97.4%
viability, T/C [20]: 78.3%
viability, T/C [21]: 48%
viability, T/C [22]: 43.1%
viability, T/C [23]: 37.1%
viability, T/C [24]: 13.1%
viability, T/C [25]: 83.8%
viability, T/C [26]: 70.6%
viability, T/C [27]: 45%
viability, T/C [28]: 31.8%
viability, T/C [29]: 25.6%
viability, T/C [30]: 5.44%
viability, T/C [31]: 85.1%
viability, T/C [32]: 60.3%
viability, T/C [33]: 39.3%
viability, T/C [34]: 25%
viability, T/C [35]: 18.7%
viability, T/C [36]: 3.49%

CC1(C)CCC(CN2CCN(c3ccc(C(=O)NS(=O)(=O)c4ccc(NCC5CCOCC5)c([N+](=O)[O-])c4)c(Oc4cnc5[nH]ccc5c4)c3)CC2)=C(c2ccc(Cl)cc2)C1 + Cc1nc(NC(=O)N2CCCC2C(N)=O)sc1-c1ccnc(C(C)(C)C(F)(F)F)c1
IC50 (second compound 0.0316 µM): 4680 nM
IC50 (second compound 0.1 µM): 4440 nM
IC50 (second compound 0.316 µM): 4350 nM
IC50 (second compound 1 µM): 3930 nM
IC50 (second compound 3.16 µM): 1500 nM
IC50 (second compound 10 µM): < 31.6 nM
viability, T/C [1]: 101%
viability, T/C [2]: 92.7%
viability, T/C [3]: 106%
viability, T/C [4]: 89.9%
viability, T/C [5]: 74.6%
viability, T/C [6]: 3.75%
viability, T/C [7]: 96.5%
viability, T/C [8]: 109%
viability, T/C [9]: 95.3%
viability, T/C [10]: 101%
viability, T/C [11]: 69.8%
viability, T/C [12]: 2.39%
viability, T/C [13]: 101%
viability, T/C [14]: 85.7%
viability, T/C [15]: 111%
viability, T/C [16]: 104%
viability, T/C [17]: 68.2%
viability, T/C [18]: 2.68%
viability, T/C [19]: 101%
viability, T/C [20]: 112%
viability, T/C [21]: 96.9%
viability, T/C [22]: 89.7%
viability, T/C [23]: 61.5%
viability, T/C [24]: 0.93%
viability, T/C [25]: 54.2%
viability, T/C [26]: 61.3%
viability, T/C [27]: 58.9%
viability, T/C [28]: 51.8%
viability, T/C [29]: 43%
viability, T/C [30]: 0.38%
viability, T/C [31]: 16.6%
viability, T/C [32]: 15.8%
viability, T/C [33]: 16.6%
viability, T/C [34]: 12.8%
viability, T/C [35]: 13.8%
viability, T/C [36]: 0.48%
